According to patent US20060198836A1, “Method of treating hit patients with argatroban” (Smithkline Beecham Corporation, priority 2003, published 2006):
Read-outs that look alike come from different tables or passages of the source.

Key:
Assay type in all cases: in vivo, human
[1] = system: patient with HIT with thrombosis
Excerpt: A person experienced pregnancy-induced hypertension and sudden weight gain during the third trimester of pregnancy. Premature labor led to the delivery of twins at 31 weeks gestation. After delivery, the patient remained hypertensive. On post-partum day 7, they awoke with chest pain and shortness of breath. They were lethargic with a blood pressure of 190/96 mm Hg and heart rate 135 beats per minute.
On postpartum day 10, the patient was transferred to another hospital for left hemiparesis. A non-hemorrhagic right cerebral infarction was confirmed by computed tomography. During days 4 to 7 of heparin therapy, platelet counts fluctuated between 163×10^9/L and 99×10^9/L with no clear downward trend. A platelet count was not obtained on day 8. However, on day 9 of heparin therapy, the patient's right leg became ischemic and their platelet count decreased to 34×10^9/L. HIT was suspected and heparin was immediately discontinued. The patient was taken to the operating room and Fogerty balloon thrombectomy of the right superficial and profunda arteries removed a typical red, fleshy acute thrombus. The clinical diagnosis of HIT with thrombosis was confirmed by the detection of heparin/PF4 antibodies in the patient's day 9 serum (but not in their serum from day 3) using an in-vitro functional test, the serotonin release assay (SRA).
An alternative anticoagulant was needed for further treatment of their pulmonary embolism and to prevent further thrombosis of the right femoral artery. The direct thrombin inhibitor Argatroban was initiated at 2 mcg/kg/min and titrated to achieve an activated partial thromboplastin time (aPTT) of 1.5 to 3.0 times the patient's baseline aPTT value.
After 6 days of Argatroban monotherapy and recovery of the platelet count to >100×10^9/L, warfarin was initiated concomitantly. Warfarin was started at the expected daily dose of 5 mg. On the 4th day of concomitant therapy, Argatroban infusion was held for 4 hours (to eliminate the effects of Argatroban on the INR) and the INR was rechecked to assure a therapeutic INR on warfarin alone. The INR was 2.1, which is considered therapeutic for the underlying medical condition, so the Argatroban was discontinued.

[2] = system: patient with HIT with thrombosis; test: Example 3 patient case: Argatroban with transition to warfarin, avoiding warfarin-induced skin necrosis and venous limb gangrene
Excerpt: The following patient case is an example of an appropriate transition to warfarin, because Argatroban therapy is continued for at least 5 days and until the patient's platelet count has recovered to >100×10^9/L. In addition, concomitant therapy with Argatroban and warfarin overlaps for at least 4-5 days.
A person presented to the hospital with an acute myocardial infarction, for which they received tissue plasminogen activator and heparin. Their platelet count was 190×10^9/L on admission. They underwent coronary artery bypass grafting several days later, and heparin was continued throughout the peri-operative period. Postoperatively, the patient experienced atrial fibrillation, and warfarin was initiated. Four days postoperatively, they developed pain and discoloration of the left breast and right leg. The platelet count was 60×10^9/L and the INR was 6.1. Unfortunately, the breast and leg lesions progressed rapidly and the patient ultimately required a mastectomy and below the knee amputation. Five weeks later, they were readmitted with upper extremity swelling. The platelet count was 126×10^9/L on readmission. Ultrasound confirmed axillary/subclavian and femoral venous thromboses, for which heparin therapy was re-initiated. The platelet count fell from 126×10^9/L to 26×10^9/L after 3 days of intravenous heparin, and the diagnosis of HIT with thrombosis was made. The patient's initial breast and leg lesions are examples of warfarin-induced skin necrosis and venous limb gangrene, respectively, which are possible clinical manifestations of HIT. The patient was started on Argatroban 2 mcg/kg/min and the dose was titrated to maintain aPTT values between 1.5 and 3 times their baseline aPTT. […] Argatroban was continued for 11 days. On day 6 of Argatroban therapy, warfarin was initiated at the estimated daily dose of 5 mg. At that time, the platelet count was 150×10^9/L. Concomitant therapy with Argatroban and warfarin was continued for […] in accordance with the recommended overlap of 4 to 5 days. On the 5th day of concomitant therapy, the Argatroban was held for 6 hours and the INR value reflecting warfarin therapy alone was checked. The INR was 2.9 and the Argatroban infusion was subsequently discontinued. • See e.g.: • Warkentin T E, Elavathil L J, Hayward C P M, et al. The pathogenesis of venous limb gangrene associated with heparin-induced thrombocytopenia. Ann Intern Med. 1997; 127:804-812. • Smythe M A, Warkentin T E, Stephens J L, et al. Venous limb gangrene during overlapping therapy with warfarin and a direct thrombin inhibitor for immune heparin-induced thrombocytopenia. Am J Hematol 2002; 71:50-52. • Srinivasan A F, Rice L, Bartholomew J R, et al. Warfarin-induced skin necrosis and venous limb gangrene in the setting of heparin-induced thrombocytopenia. […]

[3] = system: patients with HIT; test: Clinical trial of 304 patients with HIT with or without thrombosis who received argatroban; outcome by platelet count on day of argatroban cessation
Excerpt: In a clinical trial of 304 patients with HIT with or without thrombosis who received argatroban, 165 patients with active HIT had platelet count data available for the day of argatroban cessation. […] Therefore, we recommend these approaches for refining the existing method of therapy in patients with HIT receiving Argatroban.

[4] = system: patient with HIT with thrombosis (HITT); test: Example 1 patient case: Argatroban monotherapy in HIT with thrombosis, serial platelet counts
Description: The patient is a person with a history of hypertension and hyperlipidemia who presented to the emergency department (ED) complaining of chest pain. […] The patient was admitted to the Coronary Care Unit and was treated with aspirin, intravenous nitroglycerin, metoprolol, and intravenous heparin. The platelet count on admission was 212×10^9/L. Serial cardiac enzymes and troponin concentrations were negative for a myocardial infarction. […] Coronary artery bypass grafting was performed 2 days later with an uneventful postoperative course. They were discharged from the hospital 7 days after the surgery in good condition and their platelet count was 136×10^9/L. One week later, the patient returned to the ED complaining of the acute onset of a cold and painful swollen left leg. Their medications included aspirin 325 mg daily, metoprolol 75 mg twice daily, NitroDur 20 mg daily and atorvastatin 20 mg daily. The physical examination was normal with the exception of mild hypertension and a cold, swollen left leg with blue discoloration from the knee down. In addition, the left popliteal pulse was faint and the left ankle pulse was non-palpable. […] Intravenous heparin was started and the patient was sent to the operating room for emergency surgery. A femoro-popliteal bypass was performed with a graft and there was an initial return of arterial blood flow to the lower leg. However, before the incision was closed, the graft re-occluded. The graft was opened and explored with an embolectomy catheter. A large amount of whitish granular material was found and subsequently removed from the distal end of the graft. Pulses returned to the lower leg and the incision was closed. By the time the closure was complete, the graft had again re-occluded. The finding of a platelet-rich “white clot” during this surgery along with thrombocytopenia alerted physicians to suspect HIT with thrombosis (HITT). Heparin was immediately discontinued and the DTI Argatroban was initiated (at 2 mcg/kg/min) that evening (day 1 of Argatroban). On the following day, the patient's left lower leg remained cold, blue and pulseless. They were transferred to another hospital where an amputation was performed. Argatroban was continued for 10 days. The platelet count began improving with the following serial platelet counts: 62×10^9/L on day 4, 78×10^9/L on day 6, 110×10^9/L on day 8 and 180×10^9/L on day 10. The patient was measured for a prosthetic leg and they underwent intense physical therapy for 6 months.

## heparin
[1]; human, in vivo
  platelet count: 3.4e+10 L⁻¹
[2]; human, in vivo, iv
  platelet count: 2.6e+10 L⁻¹

## CC(=O)CC(c1ccccc1)c1c(O)c2ccccc2oc1=O (stereo not shown) [warfarin]
[1]; warfarin 5 mg daily, 4th day of concomitant therapy, Argatroban infusion held for 4 hours
  INR on warfarin alone: 2.1
[2]; four days postoperatively, warfarin initiated during heparin exposure, onset of skin necrosis and venous limb gangrene, platelet count 60×10^9/L
  INR: 6.1
[2]; warfarin 5 mg daily, 5th day of concomitant therapy, Argatroban held for 6 hours
  INR value reflecting warfarin therapy alone: 2.9

## CC1CNc2c(cccc2S(=O)(=O)N[C@@H](CCCNC(=N)N)C(=O)N2CC[C@@H](C)C[C@@H]2C(=O)O)C1 (stereo partly shown) [Argatroban]
[3]; 41 patients with platelet count <100×10^9/L on the day argatroban therapy was discontinued
  patients who experienced the composite endpoint of either death, amputation or new thrombosis: 61%
[3]; 124 patients with platelet count >100×10^9/L on the day argatroban therapy was discontinued
  patients who experienced the composite endpoint of either death, amputation or new thrombosis: 31.5%
[4]; day 4 of Argatroban, initiated at 2 mcg/kg/min, 41×10^9/L before
  platelet count: 6.2e+10 L⁻¹
[4]; day 6 of Argatroban
  platelet count: 7.8e+10 L⁻¹
[4]; day 8 of Argatroban
  platelet count: 1.1e+11 L⁻¹
[4]; day 10 of Argatroban
  platelet count: 1.8e+11 L⁻¹
[1]; after 6 days of Argatroban monotherapy
  recovery of the platelet count: > 1e+11 L⁻¹
[1]; hospital day 10, day 2 of Argatroban therapy, 34 × 10^9/L prior to initiation
  platelet count: 5.5e+10 L⁻¹
[1]; hospital day 13, day 5 of Argatroban therapy
  platelet count: 1.1e+11 L⁻¹
[1]; hospital day 14, day 6 of Argatroban therapy
  platelet count: 1.6e+11 L⁻¹
[1]; hospital day 16, day 8 of Argatroban therapy (warfarin concomitant)
  platelet count: 1.49e+11 L⁻¹
[1]; hospital day 18, day 10 of Argatroban therapy (warfarin concomitant)
  platelet count: 2.1e+11 L⁻¹
[1]; hospital day 20, day 12 of Argatroban therapy
  platelet count: 2.8e+11 L⁻¹
[2]; day 6 of Argatroban therapy, when warfarin was initiated, 26×10^9/L before Argatroban
  platelet count: 1.5e+11 L⁻¹
